In ChEMBL document CHEMBL1150777, “Chemically induced dimerization of human nonpancreatic secretory phospholipase A2 by bis-indole derivatives” (J Med Chem, 2008):

biological target: T1, Phospholipase A2, membrane associated (Homo sapiens, UniProt P14555); experiment: Inhibition of human nonpancreatic secretory phospholipase A2
T1 sequence (P14555 whole entry): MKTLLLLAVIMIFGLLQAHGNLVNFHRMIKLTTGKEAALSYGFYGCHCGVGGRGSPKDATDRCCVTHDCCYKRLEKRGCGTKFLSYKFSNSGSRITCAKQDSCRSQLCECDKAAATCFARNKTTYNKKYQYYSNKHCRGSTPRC

Q: Which IC50 does the source give for COc1ccc2c(c1)c(CC(N)=O)c(C)n2Cc1ccccc1 here?
A: 540 nM

Q: How did the IC50 turn out when COc1ccc2c(c1)c(CC(N)=O)c(C)n2Cc1ccccc1OCCCCCCCOc1ccccc1Cn1c(C)c(CC(N)=O)c2cc(OC)ccc21 was run?
A: 52 nM

Q: For COc1ccc2c(c1)c(CC(N)=O)c(C)n2Cc1ccccc1OCCCCCOc1ccccc1Cn1c(C)c(CC(N)=O)c2cc(OC)ccc21, which IC50 is on record?
A: 24 nM

Q: Which IC50 does the source give for COc1ccc2c(c1)c(CC(N)=O)c(C)n2Cc1ccc(OCCCCCOc2ccc(Cn3c(C)c(CC(N)=O)c4cc(OC)ccc43)cc2)cc1 here?
A: 86 nM

Q: With COc1ccc2c(c1)c(CC(N)=O)c(C)n2Cc1ccccc1OCCCCOc1ccccc1Cn1c(C)c(CC(N)=O)c2cc(OC)ccc21 as the molecule, how does the IC50 read?
A: 60 nM

Q: COc1ccc2c(c1)c(CC(N)=O)c(C)n2Cc1ccccc1OCCCCCCCCCOc1ccccc1Cn1c(C)c(CC(N)=O)c2cc(OC)ccc21 was tested. Which IC50 did it give?
A: 49 nM

Q: COc1ccc2c(c1)c(CC(N)=O)c(C)n2Cc1ccccc1OCCCCCCCCOc1ccccc1Cn1c(C)c(CC(N)=O)c2cc(OC)ccc21 was tested. Which IC50 did it give?
A: 58 nM

Q: For COc1ccc2c(c1)c(CC(N)=O)c(C)n2Cc1cccc(OCCCCCOc2cccc(Cn3c(C)c(CC(N)=O)c4cc(OC)ccc43)c2)c1, which IC50 is on record?
A: 76 nM

Q: How did the IC50 turn out when COc1ccc2c(c1)c(CC(N)=O)c(C)n2Cc1ccccc1OCCCOc1ccccc1Cn1c(C)c(CC(N)=O)c2cc(OC)ccc21 was run?
A: 48 nM

Q: With COc1ccc2c(c1)c(CC(N)=O)c(C)n2Cc1ccccc1OCCCCCCOc1ccccc1Cn1c(C)c(CC(N)=O)c2cc(OC)ccc21 as the molecule, how does the IC50 read?
A: 39 nM

Q: CCCCCOc1ccccc1Cn1c(C)c(CC(N)=O)c2cc(OC)ccc21 was tested. Which IC50 did it give?
A: 120 nM
